Assay results from PMC6891570, “Yuccalechins A–C from the Yucca schidigera Roezl ex Ortgies Bark: Elucidation of the Relative and Absolute Configurations of Three New Spirobiflavonoids and Their Cholinesterase Inhibitory Activities” (Molecules, 2019).
Like-named read-outs stand apart in the source and are kept apart here.

Legend:
[1] = target: T1, horse serum BChE (EC 3.1.1.8) (Equus caballus, UniProt P81908); test: BChE inhibition, modified Ellman's spectrophotometric assay; type: biochemical; details: for inhibition at 1000 µM: read-out: Inhibition (% ± S.D.) BChE
T1 construct: horse serum BChE (EC 3.1.1.8, Sigma, St. Louis, MO, USA) were used as the enzyme sources; purchased Sigma, St. Louis, MO, USA; host or cells: horse serum
T1 sequence (P81908 whole entry): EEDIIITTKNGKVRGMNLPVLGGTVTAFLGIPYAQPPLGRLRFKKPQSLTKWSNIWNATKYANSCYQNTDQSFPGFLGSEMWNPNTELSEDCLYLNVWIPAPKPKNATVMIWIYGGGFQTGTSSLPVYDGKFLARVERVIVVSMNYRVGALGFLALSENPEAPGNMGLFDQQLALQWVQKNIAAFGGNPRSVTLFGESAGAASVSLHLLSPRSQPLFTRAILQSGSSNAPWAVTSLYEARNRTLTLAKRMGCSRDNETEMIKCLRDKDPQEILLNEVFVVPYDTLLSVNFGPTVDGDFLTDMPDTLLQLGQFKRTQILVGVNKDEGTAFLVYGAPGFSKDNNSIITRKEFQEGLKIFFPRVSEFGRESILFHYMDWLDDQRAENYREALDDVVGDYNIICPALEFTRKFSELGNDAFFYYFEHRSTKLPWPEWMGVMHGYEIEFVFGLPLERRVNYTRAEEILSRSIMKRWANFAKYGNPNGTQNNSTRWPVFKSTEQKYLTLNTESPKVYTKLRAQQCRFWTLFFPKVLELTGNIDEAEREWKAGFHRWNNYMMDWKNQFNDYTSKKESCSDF
Experimental: (§1) The modified Ellman’s assay was used to measure the anti-acetylcholinesterase and anti-butyrylcholinesterase activities of 13, 26, and 29 [81, 82].
(§2) AChE and BChE inhibitory activities were measured by a slightly modified spectrophotometric method of Ellman et al.. Electric eel AChE (Type-VI-S, EC 3.1.1.7, Sigma, St. Louis, MO, USA) and horse serum BChE (EC 3.1.1.8, Sigma, St. Louis, MO, USA) were used as the enzyme sources, while acetylthiocholine iodide and butyrylthiocholine chloride (Sigma, St. Louis, MO, USA) were employed as the substrates of the reaction. 5,5′-Dithio-bis(2-nitrobenzoic) acid (DTNB, Sigma, St. Louis, MO, USA) was used to measure the anticholinesterase activity as the coloring agent. All reagents and conditions were exactly the same as described in our previous publication. Hydrolysis of acetylthiocholine iodide/butyrylthiocholine chloride was monitored by the formation of the yellow 5-thio-2-nitrobenzoate anion, as a result of the reaction of DTNB with thiocholines, catalyzed by enzymes at 412 nm utilizing a 96-well microplate reader (VersaMax Molecular Devices, USA). The measurements and calculations were evaluated by using Softmax PRO 4.3.2.LS software. The percent inhibitions of AChE/BChE were determined by comparing the reaction rates of the samples relative to a blank sample (ethanol in phosphate buffer pH = 8), using the formula (E − S)/E × 100, where E is the activity of enzyme without test sample, and S is the activity of the enzyme with the test sample. The experiments were conducted in six replicates. Galantamine (Sigma, St. Louis, MO, USA) was used as the reference.

[2] = target: T2, Electric eel AChE (Type-VI-S, EC 3.1.1.7) (Electrophorus electricus, UniProt O42275); test: biochemical; type: biochemical; details: for inhibition at 1000 µM: at 1000 µM final concentration, six replicates, read-out: Inhibition (% ± S.D.) AChE
T2 construct: purchased Sigma, St. Louis, MO, USA Type-VI-S (catalogue number not given)
T2 sequence (O42275 24-633): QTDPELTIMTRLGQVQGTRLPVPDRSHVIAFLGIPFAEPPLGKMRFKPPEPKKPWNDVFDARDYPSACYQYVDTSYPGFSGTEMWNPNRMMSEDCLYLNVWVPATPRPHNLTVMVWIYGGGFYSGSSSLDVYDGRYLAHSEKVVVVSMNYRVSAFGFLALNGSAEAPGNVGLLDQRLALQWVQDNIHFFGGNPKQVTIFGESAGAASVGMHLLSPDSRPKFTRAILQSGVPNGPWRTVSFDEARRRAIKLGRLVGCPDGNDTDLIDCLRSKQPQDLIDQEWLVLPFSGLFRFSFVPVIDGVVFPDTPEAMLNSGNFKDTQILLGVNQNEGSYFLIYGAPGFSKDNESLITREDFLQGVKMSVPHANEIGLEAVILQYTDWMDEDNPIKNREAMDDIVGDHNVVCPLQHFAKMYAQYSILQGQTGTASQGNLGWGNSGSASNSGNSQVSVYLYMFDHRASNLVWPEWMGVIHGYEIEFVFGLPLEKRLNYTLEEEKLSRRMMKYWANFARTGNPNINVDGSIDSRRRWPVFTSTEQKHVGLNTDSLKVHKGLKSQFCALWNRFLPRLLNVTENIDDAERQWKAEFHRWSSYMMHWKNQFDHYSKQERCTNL
Experimental: as §1, §2

AChE/BChE = details: previous results; cited from earlier work
[3] = at 1000 µM final concentration, six replicates

For `COc1c(O)cc(/C=C/c2cc(O)cc(O)c2)cc1O` [Compound 13, trans-3,3′,5,5′-tetrahydroxy-4′-methoxystilbene], the “activity against BChE (in words)” value [1] was “almost inactive”, the inhibition at 1000 µM [1, 3] was 25.2 ± 2.58% and the “activity against AChE (in words)” value [2] was “almost inactive”. It also gave an inhibition at 1000 µM [2] of 19.3 ± 3.03%.

For `O=C1Oc2cc(O)c3c(c2[C@]12c1c(O)cc(O)cc1O[C@H]2c1ccc(O)cc1)O[C@H](c1ccc(O)cc1)[C@@H](O)C3` [Compound 29, (2S,2′R,3S,3′S)-3′,4,5′,6-tetrahydroxy-2,2′-bis(4-hydroxyphenyl)-3′,4′-dihydro-2H,2′H,8′H-spiro[benzofuran-3,9′-furo[2,3-h]chromen]-8′-one], the inhibition at 1000 µM [1, 3] was 33.4 ± 1.37%, the IC50 [2] was 655 µM and the “activity against AChE (in words)” value [2] was “very low and selective activities”. It also gave an inhibition at 1000 µM [2] of 52.5 ± 2.6%.

In the case of `COc1ccc2c3c1O[C@H]1C[C@@H](O)C=C[C@@]31CCN(C)C2` [Reference, Galantamine HBr, reference compound], the inhibition at 1000 µM [1] is reported as 91.5 ± 1.63%.

For `Oc1cc(O)cc(/C=C/c2ccc(O)c(O)c2)c1` [piceatannol, trans-3,3′,4′,5-tetrahydroxystilbene, reference compound], the “cholinesterase inhibitory activity (in words)” value (AChE/BChE) is listed as “much higher, selective against BChE, activity”.

In the case of `Oc1ccc(/C=C/c2cc(O)cc(O)c2)cc1` [Compound 21, Trans-resveratrol], the “cholinesterase inhibitory activity (in words)” value (AChE/BChE) is given as “very weak activity”.

For `O=C1Oc2cc(O)c3c(c2C12c1c(O)cc(O)cc1OC2c1ccc(O)cc1)OC(c1ccc(O)cc1)C(O)C3` [Compound 26, (2S,2′R,3R,3′S)-3′,4,5′,6-tetrahydroxy-2,2′-bis(4-hydroxyphenyl)-3′,4′-dihydro-2H,2′H,8′H-spiro[benzofuran-3,9′-furo.[2,3-h]chromen]-8′-one], the inhibition at 1000 µM [1, 3] was 48.5 ± 2.29%, the IC50 [2] was 294 µM and the “activity against AChE (in words)” value [2] was “very low and selective activities”. For the same compound, the inhibition at 1000 µM [2] was 80.5 ± 1.22%.
